Converted amounts (≈) assume the structure as drawn. Like-named read-outs stand apart in the source and are kept apart here.
Legend:
P388 leukemia cells = assay: in vitro cytotoxic activity, P388 cells colony formation; format: cell-based; conditions: for IC50: Mus musculus
From the text: ^(a) Dose giving 50% reduction of cell number in comparison with
^(c) P388 leukemia cells.

experimental tumors = assay: activity on experimental tumors (general statement); conditions: in vivo
[1] = tested on: disseminated Gross leukemia; assay: in vivo antitumor activity against disseminated Gross leukemia; set-up: species or system C3H mice; conditions: for Toxic deaths (evaluated on the basis of autopsy findings on dead mice): C3H mice; for T/C % (median survival time of treated mice/median survival time of controls × 100): day after tumor injection, in parentheses: single experiments
Description: The "in vivo" antitumor activity, FCE 24883 (II) was tested against disseminated Gross leukemia. C3H mice were injected intravenously with 2.10^6 cell/mouse and treated with compounds under study 24 hours after the tumor injection.
^(a) C3H mice were injected i.v. with 2 × 10^6 leukemia
cells and treated i.v. with the compounds the day after the tumor
^(b) (Median survival time of treated mice/median survival time of
^(c) Evaluated on the basis of autopsy findings on dead mice.

solubility = format: physicochemical
HeLa cells = assay: in vitro cytotoxic activity, HeLa cells colony formation; format: cell-based, human; conditions: for IC50: HeLa, read-out: ID50 (dose giving 50% reduction of cell number in comparison with untreated controls)
From the text: ^(a) Dose giving 50% reduction of cell number in comparison with […]

[2] = P388 leukemia cells, read-out: ID50 (dose giving 50% reduction of cell number in comparison with untreated controls)
[3] = human cervix epithelioid carcinoma cells

COc1cccc2c1C(=O)c1c(O)c3c(c(O)c1C2=O)C[C@@](O)([C@@H](O)CO)C[C@@H]3O[C@H]1C[C@H](N)[C@H](I)[C@H](C)O1 [FCE 24883 (II), 4'-deoxy-13(S)-dihydro-4'-iododoxorubicin]
IC50 (P388 leukemia cells; [2]): 3.5 ng/mL (≈ 0.00534 µM) | cytotoxic activity, potency in comparison with compound I and doxorubicin (P388 leukemia cells; P388 cells, in vitro): as potent as 4'-deoxy-4'-iododoxorubicin (I) and doxorubicin | activity on experimental tumors in comparison with compound I (experimental tumors): comparable with that of 4'-deoxy-4'-iododoxorubicin (I) | Toxic deaths (evaluated on the basis of autopsy findings on dead mice) ([1]; 4 mg/Kg i.v.): 0/10 | T/C % (median survival time of treated mice/median survival time of controls × 100) ([1]; 4 mg/Kg i.v.): 180 (180) % | Toxic deaths (evaluated on the basis of autopsy findings on dead mice) ([1]; 5.2 mg/Kg i.v.): 0/20 | T/C % (median survival time of treated mice/median survival time of controls × 100) ([1]; 5.2 mg/Kg i.v.): 220 (220, 220) % | Toxic deaths (evaluated on the basis of autopsy findings on dead mice) ([1]; 6.8 mg/Kg i.v.): 0/20 | T/C % (median survival time of treated mice/median survival time of controls × 100) ([1]; 6.8 mg/Kg i.v.): 220 (220, 220) % | Toxic deaths (evaluated on the basis of autopsy findings on dead mice) ([1]; 8.8 mg/Kg i.v.): 5/9 | T/C % (median survival time of treated mice/median survival time of controls × 100) ([1]; 8.8 mg/Kg i.v.): 140 (140) % | toxicity displayed ([1]; at the active doses): minor toxicity | antitumor potency in comparison with compound I ([1]; at the optimal dose): as potent as 4'-deoxy-4'-iododoxorubicin (I) | antitumor potency in comparison with doxorubicin ([1]; at the optimal dose): more potent than doxorubicin | antitumor activity, evaluated as median survival time of treated over control mice, in comparison with I and doxorubicin ([1]; mouse, in vivo): can be compared with those of I and doxorubicin | solubility of the free base (solubility; free base, polar organic solvents and aqueous alcohols): soluble in polar organic solvents and aqueous alcohols | solubility of the hydrochloride in organic solvents (solubility; hydrochloride, organic solvents): slighty soluble in organic solvents | solubility of the hydrochloride in water and lower alcohols (solubility; hydrochloride, water and lower alcohols): soluble in water and lower alcohols | cytotoxic activity, potency in comparison with compound I and doxorubicin (HeLa cells; HeLa cells, in vitro): as potent as 4'-deoxy-4'-iododoxorubicin (I) and doxorubicin | IC50 (HeLa cells; [3]): 0.008 µg/mL (≈ 0.0122 µM)

COc1cccc2c1C(=O)c1c(O)c3c(c(O)c1C2=O)C[C@@](O)(C(=O)CO)C[C@@H]3O[C@H]1C[C@H](N)[C@H](O)[C@H](C)O1 [DX, Doxorubicin]
IC50 (P388 leukemia cells; P388, read-out: ID50 (dose giving 50% reduction of cell number in comparison with untreated controls)): 8 ng/mL (≈ 0.0147 µM) | Toxic deaths (evaluated on the basis of autopsy findings on dead mice) ([1]; 10 mg/Kg i.v.): 0/20 | T/C % (median survival time of treated mice/median survival time of controls × 100) ([1]; 10 mg/Kg i.v.): 200 (200, 200) % | Toxic deaths (evaluated on the basis of autopsy findings on dead mice) ([1]; 13 mg/Kg i.v.): 0/20 | T/C % (median survival time of treated mice/median survival time of controls × 100) ([1]; 13 mg/Kg i.v.): 225 (230, 220) % | Toxic deaths (evaluated on the basis of autopsy findings on dead mice) ([1]; 16.9 mg/Kg i.v.): 2/20 | T/C % (median survival time of treated mice/median survival time of controls × 100) ([1]; 16.9 mg/Kg i.v.): 250 (260, 240) % | IC50 (HeLa cells; Homo sapiens): 0.0108 µg/mL (≈ 0.0199 µM)

COc1cccc2c1C(=O)c1c(O)c3c(c(O)c1C2=O)C[C@@](O)(C(=O)CO)C[C@@H]3O[C@H]1C[C@H](N)[C@H](I)[C@H](C)O1 [FCE 21954 (I), 4'-deoxy-4'-iododoxorubicin]
IC50 (P388 leukemia cells; [2]): 2.1 ng/mL (≈ 0.00321 µM) | Toxic deaths (evaluated on the basis of autopsy findings on dead mice) ([1]; 4 mg/Kg i.v.): 0/20 | T/C % (median survival time of treated mice/median survival time of controls × 100) ([1]; 4 mg/Kg i.v.): 240 (240, 240) % | Toxic deaths (evaluated on the basis of autopsy findings on dead mice) ([1]; 5.2 mg/Kg i.v.): 4/20 | T/C % (median survival time of treated mice/median survival time of controls × 100) ([1]; 5.2 mg/Kg i.v.): 260 (260, 260) % | Toxic deaths (evaluated on the basis of autopsy findings on dead mice) ([1]; 6.8 mg/Kg i.v.): 19/20 | T/C % (median survival time of treated mice/median survival time of controls × 100) ([1]; 6.8 mg/Kg i.v.): 145 (160, 130) % | IC50 (HeLa cells; [3]): 0.0104 µg/mL (≈ 0.0159 µM)

Source: patent publication US4895933A, “New antitumor agent obtained by microbial stereoselective reduction of 4'-deoxy-4'-iododoxorubicin” (Farmitalia Carlo Erba S.p.A., priority 1987, dated 1990)
